Assay results from US20050159599A1, “Cyclic compound, process for producing the same, and pest control agent” (priority 2002, published 2005).
Where two headings read alike, the source gives them in different places.

Tested on: Spodoptera litura
Assay: Insecticidal effect for Spodoptera litura by spraying treatment to host crop (Test Example 2)
Assay type: in vivo
Conditions: for pest or weed control at 100 ppm: 120 h, read-out: rate of dead pests (%)
Protocol: Insecticidal Effect for Spodoptera litura by Spraying Treatment to Host Crop
A pesticidal solution, which was prepared by dissolving 5 mg of test compound (represented by the compound Nos. in the above Examples) in 0.5-ml of acetone containing Tween 20 (trade name) and then diluting it to the prescribed concentration (100 ppm) with Dain (trade name, sticker) water diluted 5000-fold, was sprayed on a soybean whose primary leaves had developed completely with spray gun in the amounts wherein the pesticidal solution dripped. After drying the pesticidal solution, two primary leaves were cut off. The leaves were put into an ice cream cup (180 ml), and ten third-instar larvae of Spodoptera litura were set free therein. The cup was left in a temperature-controlled breeding room (25° C.). On the fifth day after, the number of surviving Spodoptera litura was examined. The rate of dead pests was calculated by the following formula. rate of dead pests (%)=(number of dead pests/number of test pests)×100

[1] = 100 ppm, sprayed on soybean, third-instar larvae of Spodoptera litura, fifth day after

Structure (SMILES)	rate of dead pests (%) [1]	further results
O=C(c1c(F)cccc1F)N1COCN(c2ccc(Oc3ccc(C(F)(F)F)cc3Cl)cc2F)C1=O [I-3]	100%	
O=C(c1c(F)cccc1F)N1COCN(c2cc(Cl)c(OC(F)(F)C(F)F)c(Cl)c2)C1=O [I-5]	100%	
O=C(c1c(F)cccc1F)N1COCN(c2cc(Cl)c(OC(F)(F)C(F)C(F)(F)F)cc2Cl)C1=O (stereo not drawn) [I-6]	100%	
O=C(c1c(F)cccc1F)N1COCN(c2ccc(SC(F)(F)C(F)Cl)cc2F)C1=O (stereo not drawn) [I-7]	100%	
CSc1cc(F)c(N2COCN(C(=O)c3c(F)cccc3F)C2=O)c(F)c1 [I-31]	100%	
Cc1cc(SC(F)(F)F)ccc1N1COCN(C(=O)c2c(F)cccc2F)C1=O [I-68]	100%	
O=C(c1c(F)cccc1F)N1COCN(c2ccc(SC(F)(F)F)c(Cl)c2)C1=O [I-77]	100%	
O=C(c1c(F)cccc1F)N1COCN(c2ccc(SC(F)(F)F)c(F)c2)C1=O [I-80]	100%	
Cc1c(SC(F)(F)F)ccc(N2COCN(C(=O)c3c(F)cccc3F)C2=O)c1C [I-83]	100%	
Cc1cc(N2COCN(C(=O)c3c(F)cccc3F)C2=O)c(C)cc1SC(F)(F)F [I-86]	100%	
Cc1cc([S+]([O-])C(F)(F)F)c(C)cc1N1COCN(C(=O)c2c(F)cccc2F)C1=O (stereo not drawn) [I-87]	100%	
Cc1cc(SC(F)(F)F)c(Cl)cc1N1COCN(C(=O)c2c(F)cccc2F)C1=O [I-89]	100%	
Cc1cc([S+]([O-])C(F)(F)F)c(Cl)cc1N1COCN(C(=O)c2c(F)cccc2F)C1=O (stereo not drawn) [I-90]	100%	
O=C(c1c(F)cccc1F)N1COCN(c2ccc(SC(F)(F)F)c(Cl)c2Cl)C1=O [I-92]	100%	
O=C(c1c(F)cccc1F)N1COCN(c2ccc(SC(F)(F)F)c(Cl)c2F)C1=O [I-95]	100%	
O=C(c1c(F)cccc1F)N1COCN(c2ccc([S+]([O-])C(F)(F)F)c(Cl)c2F)C1=O (stereo not drawn) [I-96]	100%	
O=C(c1c(F)cccc1F)N1COCN(c2cc(Cl)c([S+]([O-])C(F)(F)F)cc2F)C1=O (stereo not drawn) [I-99]	100%	
O=C(c1c(F)cccc1F)N1COCN(c2ccc(SC(F)(F)F)c(F)c2F)C1=O [I-107]	100%	
O=C(c1c(F)cccc1F)N1COCN(c2cc(F)c(SC(F)(F)F)cc2F)C1=O [I-110]	100%	
O=C(c1c(F)cccc1F)N1COCN(c2cc(F)c(SC(F)(F)F)c(F)c2)C1=O [I-113]	100%	
O=C(c1c(F)cccc1F)N1COCN(c2c(F)cc([S+]([O-])C(F)(F)F)c(F)c2F)C1=O (stereo not drawn) [I-117]	100%	

Structure (SMILES)	rate of dead pests (%) [1]	further results
Cc1cc(SC(F)(F)F)c(F)cc1N1COCN(C(=O)c2c(F)cccc2F)C1=O [I-125]	100%	
O=C(c1c(F)cccc1F)N1COCN(c2ccc(SC(F)(F)C(F)(F)C(F)(F)F)cc2F)C1=O [I-143, 3-(2,6-difluorobenzoyl)-5-[2-fluoro-4-(1,1,2,2,3,3,3-heptafluoro-1-propylthio)phenyl]tetrahydro-4H-1,3,5-oxadiazin-4-one]		pest or weed control at 100 ppm (Spodoptera litura, in Glycine max): 100%
O=C(c1c(F)cccc1F)N1COCN(c2ccc(SC(F)(C(F)(F)F)C(F)(F)F)cc2F)C1=O [I-158, 3-(2,6-difluorobenzoyl)-5-[2-fluoro-4-(1,1,1,2,3,3,3-heptafluoro-2-propylthio)phenyl]tetrahydro-4H-1,3,5-oxadiazin-4-one]		pest or weed control at 100 ppm [1]: 100%
CSc1cc(F)c(N2COCN(C(=O)c3c(F)cccc3Cl)C2=O)c(F)c1 [I-208]	100%	
Cc1cc(N2COCN(C(=O)c3c(F)cccc3Cl)C2=O)ccc1SC(F)(F)F [I-248]	100%	
O=C(c1c(F)cccc1Cl)N1COCN(c2ccc(SC(F)(F)F)c(Cl)c2)C1=O [I-254]	100%	
O=C(c1c(F)cccc1Cl)N1COCN(c2ccc(SC(F)(F)F)c(F)c2)C1=O [I-257]	100%	
O=C(c1c(F)cccc1Cl)N1COCN(c2ccc([S+]([O-])C(F)(F)F)c(F)c2)C1=O (stereo not drawn) [I-258]	100%	
Cc1cc(SC(F)(F)F)c(Cl)cc1N1COCN(C(=O)c2c(F)cccc2Cl)C1=O [I-266]	100%	
O=C(c1c(F)cccc1Cl)N1COCN(c2ccc(SC(F)(F)F)c(Cl)c2Cl)C1=O [I-269]	100%	
O=C(c1c(F)cccc1Cl)N1COCN(c2ccc([S+]([O-])C(F)(F)F)c(Cl)c2Cl)C1=O (stereo not drawn) [I-270]	100%	
O=C(c1c(F)cccc1Cl)N1COCN(c2ccc(SC(F)(F)F)c(Cl)c2F)C1=O [I-272]	100%	
O=C(c1c(F)cccc1Cl)N1COCN(c2ccc([S+]([O-])C(F)(F)F)c(Cl)c2F)C1=O (stereo not drawn) [I-273]	100%	
O=C(c1c(F)cccc1Cl)N1COCN(c2cc(Cl)c([S+]([O-])C(F)(F)F)cc2F)C1=O (stereo not drawn) [I-276]	100%	
O=C(c1c(F)cccc1Cl)N1COCN(c2c(F)cc([S+]([O-])C(F)(F)F)cc2Cl)C1=O (stereo not drawn) [I-279]	100%	
O=C(c1c(F)cccc1Cl)N1COCN(c2c(F)cc([S+]([O-])C(F)(F)F)cc2F)C1=O (stereo not drawn) [I-282]	100%	
O=C(c1c(F)cccc1Cl)N1COCN(c2ccc(SC(F)(F)F)c(F)c2F)C1=O [I-284]	100%	
O=C(c1c(F)cccc1Cl)N1COCN(c2ccc([S+]([O-])C(F)(F)F)c(F)c2F)C1=O (stereo not drawn) [I-285]	100%	
O=C(c1c(F)cccc1Cl)N1COCN(c2cc(F)c(SC(F)(F)F)cc2F)C1=O [I-287]	100%	
O=C(c1c(F)cccc1Cl)N1COCN(c2cc(F)c(SC(F)(F)F)c(F)c2)C1=O [I-290]	100%	
O=C(c1c(F)cccc1Cl)N1COCN(c2c(F)cc(SC(F)(F)F)c(F)c2F)C1=O [I-293]	100%	

Structure (SMILES)	rate of dead pests (%) [1]	further results
O=C(c1c(F)cccc1Cl)N1COCN(c2c(F)cc([S+]([O-])C(F)(F)F)c(F)c2F)C1=O (stereo not drawn) [I-294]	100%	
O=C(c1c(F)cccc1Cl)N1COCN(c2c(F)c(F)c(SC(F)(F)F)c(F)c2F)C1=O [I-296]	100%	
Cc1c(N2COCN(C(=O)c3c(F)cccc3Cl)C2=O)ccc(SC(F)(F)F)c1Cl [I-299]	100%	
Cc1c(N2COCN(C(=O)c3c(F)cccc3Cl)C2=O)ccc([S+]([O-])C(F)(F)F)c1Cl (stereo not drawn) [I-300]	100%	
Cc1cc(SC(F)(F)F)c(F)cc1N1COCN(C(=O)c2c(F)cccc2Cl)C1=O [I-302]	100%	
Cc1cc([S+]([O-])C(F)(F)F)c(F)cc1N1COCN(C(=O)c2c(F)cccc2Cl)C1=O (stereo not drawn) [I-303]	100%	
O=C(c1c(F)cccc1Cl)N1COCN(c2ccc(SC(F)(F)C(F)(F)F)cc2F)C1=O [I-305]	100%	
O=C(c1c(F)cccc1Cl)N1COCN(c2ccc(SC(F)(F)C(F)(F)C(F)(F)F)cc2F)C1=O [I-320]	100%	
O=C(c1c(F)cccc1Cl)N1COCN(c2ccc(SC(F)(F)C(F)(F)C(F)(F)F)cc2Cl)C1=O [I-323]	100%	
O=C(c1c(F)cccc1Cl)N1COCN(c2ccc([S+]([O-])C(F)(F)C(F)(F)C(F)(F)F)cc2Cl)C1=O (stereo not drawn) [I-324]	100%	
Cc1cc(SC(F)(F)C(F)(F)C(F)(F)F)c(Cl)cc1N1COCN(C(=O)c2c(F)cccc2Cl)C1=O [I-329]	100%	
Cc1cc([S+]([O-])C(F)(F)C(F)(F)C(F)(F)F)c(Cl)cc1N1COCN(C(=O)c2c(F)cccc2Cl)C1=O (stereo not drawn) [I-330]	100%	
O=C(c1c(Cl)cccc1Cl)N1COCN(c2ccc(SC(F)F)cc2F)C1=O [I-395]	100%	
CN1CN(C(=O)c2c(F)cccc2F)C(=O)N(c2ccc(Cl)cc2)C1 [III-1, 1-(4-chlorophenyl)-3-(2,6-difluorobenzoyl)-5-methyltetrahydro-1,3,5-triazin-2(1H)-one]		pest or weed control at 100 ppm [1]: 100%
O=C(c1c(F)cccc1F)N1CN(Cc2ccccc2)CN(c2ccc(Cl)cc2)C1=O [III-4]	100%	
C=CCN1CN(C(=O)c2c(F)cccc2F)C(=O)N(c2ccc(Cl)cc2)C1 [III-5, 5-allyl-1-(4-chlorophenyl)-3-(2,6-difluorobenzoyl)tetrahydro-1,3,5-triazin-2 (1H)-one]		pest or weed control at 100 ppm [1]: 100%
O=C(c1c(F)cccc1F)N1CNCN(c2ccc(Cl)cc2)C1=O [III-6, 1-(4-chlorophenyl)-3-(2,6-difluorobenzoyl)tetrahydro-1,3,5-triazin-2(1H)-one]		pest or weed control at 100 ppm [1]: 100%
O=C(OCc1ccccc1)N1CN(C(=O)c2c(F)cccc2F)C(=O)N(c2ccc(Cl)cc2)C1 [III-7, 5-benzyloxycarbonyl-1-(4-chlorophenyl)-3-(2,6-difluorobenzoyl)tetrahydro-1,3,5-triazin-2 (1H)-one]		pest or weed control at 100 ppm [1]: 100%
CC(c1ccccc1)N1CN(C(=O)c2c(F)cccc2F)C(=O)N(c2ccc(Cl)cc2)C1 (stereo not drawn) [III-14]	100%	
O=C(OCc1ccccc1)N1CN(C(=O)c2c(F)cccc2F)C(=O)N(c2ccc(Oc3ccc(C(F)(F)F)cc3Cl)cc2F)C1 [III-22, 5-benzyloxycarbonyl-1-[4-(2-chloro-4-trifluoromethylphenoxy)-2-fluorophenyl]-3-(2,6-difluorobenzoyl)tetrahydro-1,3,5-triazin-2(1H)-one]		pest or weed control at 100 ppm [1]: 100%
O=C(c1c(F)cccc1F)N1CN(Cc2ccccc2)CN(c2ccc(Oc3ccc(C(F)(F)F)cc3Cl)cc2F)C1=O [III-29]	100%	
